Results: ChEMBL document CHEMBL1140610, “Matrix metalloproteinases (MMPs): chemical-biological functions and (Q)SARs” (Bioorg Med Chem, 2007)

How the values were obtained:
Interstitial collagenase = target: T1, Interstitial collagenase (Homo sapiens, UniProt P03956); conditions: read-out: log(1/IC50) (converted)
T1 sequence (P03956 whole entry): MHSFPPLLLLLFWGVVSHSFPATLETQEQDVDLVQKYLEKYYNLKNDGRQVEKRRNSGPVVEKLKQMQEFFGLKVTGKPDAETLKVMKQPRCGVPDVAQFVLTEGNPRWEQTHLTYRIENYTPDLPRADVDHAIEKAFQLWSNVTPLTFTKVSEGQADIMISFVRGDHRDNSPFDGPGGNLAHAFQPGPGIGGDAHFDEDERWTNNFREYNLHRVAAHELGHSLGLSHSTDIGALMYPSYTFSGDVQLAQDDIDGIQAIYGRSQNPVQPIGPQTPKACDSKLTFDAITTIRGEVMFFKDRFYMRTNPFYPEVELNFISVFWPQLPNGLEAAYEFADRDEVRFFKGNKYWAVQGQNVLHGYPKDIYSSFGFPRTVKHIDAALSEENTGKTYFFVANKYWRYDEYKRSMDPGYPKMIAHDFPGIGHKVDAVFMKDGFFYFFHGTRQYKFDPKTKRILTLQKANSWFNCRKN

[1] = target: Matrix metalloproteinase-14 (Homo sapiens, UniProt P50281)

| Compound | IC50 (Interstitial collagenase) | IC50 [1] |
| --- | --- | --- |
| CNC(=O)[C@@H](Cc1ccc(OC)cc1)NC(=O)C(CC(C)C)CP(=O)(O)Cc1ccc(Oc2ccccc2)cc1 (some centres not stated) | 2820 nM |  |
| CC(N)P(=O)(O)CC(Cc1ccccc1)C(=O)NC(Cc1c[nH]c2ccccc12)C(N)=O (configuration not stated) | 251 nM |  |
| Cc1c(F)cccc1COc1ccc(S(=O)(=O)N2CCC[C@@](C)(O)C2C(=O)NO)cc1 (some centres not stated) | 1290 nM |  |
| C[C@@]1(O)CCCN(S(=O)(=O)c2ccc(OCc3cccc(F)c3)cc2)C1C(=O)NO (some centres not stated) | 339 nM |  |
| C[C@@]1(O)CCCN(S(=O)(=O)c2ccc(OC[n+]3ccncc3)cc2)C1C(=O)NO (some centres not stated) | 1580 nM |  |
| CNC(=O)[C@@H](NC(=O)C(CCC(C)C)CP(=O)(O)Cc1ccc(Cc2ccccc2)cc1)C(C)(C)C (some centres not stated) | 3470 nM |  |
| C[C@@]1(O)CCCN(S(=O)(=O)c2ccc(OCc3ccccc3F)cc2)C1C(=O)NO (some centres not stated) | 182 nM |  |
| CCOCCC1(Oc2ccc(Oc3ccc(Br)cc3)cc2)C(=O)NC(=O)NC1=O |  | 19.1 nM |
| CCOCCC1(Oc2ccc(Oc3cccc(F)c3)cc2)C(=O)NC(=O)NC1=O |  | 60.3 nM |
| CCOCCC1(Oc2ccc(Oc3ccc(-c4ccccc4)cc3)cc2)C(=O)NC(=O)NC1=O |  | 36.3 nM |
| CNC(=O)[C@@H](NC(=O)C(CCc1ccccc1)CP(=O)(O)Cc1ccc(Cc2ccccc2)cc1)C(C)(C)C (some centres not stated) | 692 nM |  |
| CNC(=O)[C@@H](NC(=O)C(CCC(F)(F)F)CP(=O)(O)Cc1ccc(Cc2ccccc2)cc1)C(C)(C)C (some centres not stated) | 44.7 nM |  |
| CCOCCC1(Oc2ccc(Oc3cccc(Cl)c3)cc2)C(=O)NC(=O)NC1=O |  | 120 nM |
| CNC(=O)[C@@H](Cc1ccc(OC)cc1)NC(=O)C(CC(C)C)CP(=O)(O)Cc1ccc(CC(C)C)cc1 (some centres not stated) | 4470 nM |  |
| CNC(=O)[C@@H](Cc1ccc(OC)cc1)NC(=O)C(CC(C)C)CP(=O)(O)Cc1ccc(-c2ccccc2)cc1 (some centres not stated) | 2190 nM |  |
| CC(N)P(=O)(O)CC(COCc1ccccc1)C(=O)NC(Cc1c[nH]c2ccccc12)C(N)=O (configuration not stated) | 251 nM |  |
| Cc1ccccc1COc1ccc(S(=O)(=O)N2CCC[C@@](C)(O)C2C(=O)NO)cc1 (some centres not stated) | 309 nM |  |
| CNC(=O)[C@@H](Cc1ccc(OC)cc1)NC(=O)C(CC(C)C)CP(=O)(O)Cc1cccc(CCc2ccccc2)c1 (some centres not stated) | 7410 nM |  |
| CCOCCC1(Oc2ccc(Oc3ccc(C(=O)NC)cc3)cc2)C(=O)NC(=O)NC1=O |  | 646 nM |
| CCOCCC1(Oc2ccc(Oc3ccc(S(C)(=O)=O)cc3)cc2)C(=O)NC(=O)NC1=O |  | 8710 nM |
| CNC(=O)[C@@H](NC(=O)C(CC(C)C)CP(=O)(O)Cc1ccc(Cc2ccccc2)cc1)C(C)(C)C (some centres not stated) | 60.3 nM |  |

| Compound | IC50 (Interstitial collagenase) | IC50 [1] |
| --- | --- | --- |
| CNC(=O)[C@@H](Cc1ccc(OC)cc1)NC(=O)C(CC(C)C)CP(=O)(O)Cc1ccccc1 (some centres not stated) | 15100 nM |  |
| CNC(=O)[C@@H](NC(=O)C(CC1CC1)CP(=O)(O)Cc1ccc(Cc2ccccc2)cc1)C(C)(C)C (some centres not stated) | 200 nM |  |
| C[C@@]1(O)CCCN(S(=O)(=O)c2ccc(OCc3ccc(Cl)cc3F)cc2)C1C(=O)NO (some centres not stated) | 120 nM |  |
| CCOCCC1(Oc2ccc(Oc3ccc(C(F)(F)F)cc3)cc2)C(=O)NC(=O)NC1=O |  | 151 nM |
| CNC(=O)[C@@H](Cc1ccc(OC)cc1)NC(=O)C(CC(C)C)CP(=O)(O)Cc1ccc(Cc2ccccc2)cc1 (some centres not stated) | 269 nM |  |
| C[C@@]1(O)CCCN(S(=O)(=O)c2ccc(OCc3cncc4ccccc34)cc2)C1C(=O)NO (some centres not stated) | 7760 nM |  |
| CCOCCC1(Oc2ccc(Oc3ccccc3F)cc2)C(=O)NC(=O)NC1=O |  | 15.8 nM |
| C[C@@]1(O)CCCN(S(=O)(=O)c2ccc(OCc3ccc(F)cc3Cl)cc2)C1C(=O)NO (some centres not stated) | 309 nM |  |
| C[C@@]1(O)CCCN(S(=O)(=O)c2ccc(OCc3ccnc(Cl)c3)cc2)C1C(=O)NO (some centres not stated) | 525 nM |  |
| O=C(CN(Cc1ccc([N+](=O)[O-])cc1)S(=O)(=O)c1c(F)c(F)c(F)c(F)c1F)NO | 3.02 nM |  |
| CCOCCC1(Oc2ccc(Oc3ccc(C)cc3)cc2)C(=O)NC(=O)NC1=O |  | 22.9 nM |
| CNC(=O)[C@@H](NC(=O)C(CCC1CCCCC1)CP(=O)(O)Cc1ccc(Cc2ccccc2)cc1)C(C)(C)C (some centres not stated) | 19100 nM |  |
| CNC(=O)[C@@H](NC(=O)C(CC1CCCCC1)CP(=O)(O)Cc1ccc(Cc2ccccc2)cc1)C(C)(C)C (some centres not stated) | 1820 nM |  |
| CCOCCC1(Oc2ccc(Oc3ccccc3C)cc2)C(=O)NC(=O)NC1=O |  | 70.8 nM |
| C[C@@]1(O)CCCN(S(=O)(=O)c2ccc(OCc3ccnc4ccccc34)cc2)C1C(=O)NO (some centres not stated) | 120 nM |  |
| CCCC(CP(=O)(O)Cc1ccc(Cc2ccccc2)cc1)C(=O)N[C@H](C(=O)NC)C(C)(C)C (some centres not stated) | 339 nM |  |
| CC(N)P(=O)(O)CC(CCCc1ccccc1)C(=O)NC(Cc1c[nH]c2ccccc12)C(N)=O (configuration not stated) | 30.9 nM |  |
| C[C@@]1(O)CCCN(S(=O)(=O)c2ccc(OCc3ccc(F)cc3)cc2)C1C(=O)NO (some centres not stated) | 417 nM |  |
| C[C@@]1(O)CCCN(S(=O)(=O)c2ccc(OCc3ccncc3)cc2)C1C(=O)NO (some centres not stated) | 191 nM |  |
| CNC(=O)[C@@H](Cc1ccc(OC)cc1)NC(=O)C(CC(C)C)CP(=O)(O)Cc1ccc(CC2CCCCC2)cc1 (some centres not stated) | 1910 nM |  |
| CC(C(=O)NO)N(Cc1ccc([N+](=O)[O-])cc1)S(=O)(=O)c1c(F)c(F)c(F)c(F)c1F (configuration not stated) | 3.98 nM |  |

| Compound | IC50 (Interstitial collagenase) | IC50 [1] |
| --- | --- | --- |
| CNC(=O)[C@@H](Cc1ccc(OC)cc1)NC(=O)C(CC(C)C)CP(=O)(O)Cc1cccc(-c2ccccc2)c1 (some centres not stated) | 5130 nM |  |
| CCOCCC1(Oc2ccc(Oc3ccc(C#N)cc3)cc2)C(=O)NC(=O)NC1=O |  | 200 nM |
| CCOCCC1(Oc2ccc(Oc3ccc(C(C)(C)C)cc3)cc2)C(=O)NC(=O)NC1=O |  | 6760 nM |
| CCOCCC1(Oc2ccc(Oc3cccc(C)c3)cc2)C(=O)NC(=O)NC1=O |  | 50.1 nM |
| C[C@@]1(O)CCCN(S(=O)(=O)c2ccc(OCc3ccccc3C#N)cc2)C1C(=O)NO (some centres not stated) | 2690 nM |  |
| CNC(=O)[C@@H](Cc1ccc(OC)cc1)NC(=O)C(CC(C)C)CP(=O)(O)Cc1ccc(S(=O)(=O)c2ccccc2)cc1 (some centres not stated) | 1700 nM |  |
| CCOCCC1(Oc2ccc(Oc3ccc(Cl)cc3)cc2)C(=O)NC(=O)NC1=O |  | 18.2 nM |
| COc1ccccc1COc1ccc(S(=O)(=O)N2CCC[C@@](C)(O)C2C(=O)NO)cc1 (some centres not stated) | 2570 nM |  |
| CCOCCC1(Oc2ccc(Oc3ccc(C(=O)N(C)C)cc3)cc2)C(=O)NC(=O)NC1=O |  | 9330 nM |
| CCOCCC1(Oc2ccc(Oc3ccc(OC)cc3)cc2)C(=O)NC(=O)NC1=O |  | 219 nM |
| CC(N)P(=O)(O)CC(CSCc1ccccc1)C(=O)NC(Cc1c[nH]c2ccccc12)C(N)=O (configuration not stated) | 14.1 nM |  |
| CC(C)CC(C(=O)NO)N(Cc1ccccc1)S(=O)(=O)c1c(F)c(F)c(F)c(F)c1F (configuration not stated) | 6.03 nM |  |
| CNC(=O)[C@@H](Cc1ccc(OC)cc1)NC(=O)C(CC(C)C)CP(=O)(O)Cc1ccccc1-c1ccccc1 (some centres not stated) | 11000 nM |  |
| CCOCCC1(Oc2ccc(Oc3ccccc3Cl)cc2)C(=O)NC(=O)NC1=O |  | 513 nM |
| CNC(=O)[C@@H](NC(=O)C(CC1CCC1)CP(=O)(O)Cc1ccc(Cc2ccccc2)cc1)C(C)(C)C (some centres not stated) | 178 nM |  |
| CCOCCC1(Oc2ccc(Oc3ccc(F)cc3)cc2)C(=O)NC(=O)NC1=O |  | 22.9 nM |
| Cc1ncccc1COc1ccc(S(=O)(=O)N2CCC[C@@](C)(O)C2C(=O)NO)cc1 (some centres not stated) | 1580 nM |  |
| CC(N)P(=O)(O)CC(CCc1ccccc1)C(=O)NC(Cc1c[nH]c2ccccc12)C(N)=O (configuration not stated) | 79.4 nM |  |
| C[C@@]1(O)CCCN(S(=O)(=O)c2ccc(OCc3cccc(Cl)c3)cc2)C1C(=O)NO (some centres not stated) | 851 nM |  |
| CCOCCC1(Oc2ccc(Oc3ccc(C(N)=O)cc3)cc2)C(=O)NC(=O)NC1=O |  | 617 nM |
